This note sets out measurements from patent US20110288123A1, “FORMULATIONS FOR THE TREATMENT OF ACUTE HERPES ZOSTER PAIN” (priority 2008, published 2011).

Each structure is given as a SMILES string.

Data set [1] can be described thus: Stinging test (VAS) on tape-stripped forearm skin of subjects. Format: in vivo, human. The conditions noted are these: for Subjective Stinging Score, mean: 100 mm VAS, n=10, abraded skin. From the text:
Topical formulations, particularly those that are to be applied to diseased or damaged skin (e.g. cracks, fissures, open blisters, rash, and the like) may produce the sensory perception of stinging, a distinct discomfort to the user. A stinging test can be used to assess whether the novel topical formulations described herein produce a sensory perception of stinging.
For example, the study is designed to assess the sting potential of four topical formulations using a modification of a lactic acid sting assessment method. The test formulations are evaluated on skin that has been partially damaged (e.g. partial removal of the stratum corneum by tape stripping) to simulate diseased skin. Both a positive control (70% isopropyl alcohol) and a negative control (water) can be included to ascertain each subject's ability to sense the stinging sensation.
After providing informed consent, each subject receives a single dose exposure of 5 μL/cm^2 (40 μL/site) of a test formulation to an 8 cm^2 (2 cm×4 cm) surface abraded test site on their forearms (3 sites/arm), for a 10 minute duration. Skin abrasion is produced by repetitive tape stripping until a TEWL (Trans-Epidermal Water-Loss) measurement of 30 g/m^2/hr, or greater, has been achieved (e.g. tape stripping will be performed 15 times followed by a TEWL measurement. If the TEWL is <30 g/m^2/hr, 10 more strips will be collected, if TEWL is still <30 g/m^2/hr, 10 more tape strip will be collected).
Subjects rated stinging, pain and discomfort at the site using a 100 mm visual analogue scale (VAS), one for each individual sensation, immediately after dosing and at 2, 5 and 10 minutes following topical application. Subjects provided a description of the sensations experienced following application of each test article. The subjects responses, measured in mm, were tabulated for each post-dosing assessment for each test sited.

A short description of data set [2]: Crystallization of lidocaine in formulation with time. The data set is classed as physicochemical. Conditions: lidocaine base formulation; water concentration greater than about 40% w/w. From the text:
In this experiment, the water concentration in L504 was maximized in order to develop a more benign vehicle with reduced chance of irritation.

As for `CC(C)O` [70% Isopropanol, Isopropyl Alcohol], the “Subjective Stinging Score, mean” value turned out to be 3.31 mm in data set [1] (2 Minute after application); 1.87 mm in data set [1] (5 Minute after application); 1.00 mm in data set [1] (10 Minute after application); 10.84 mm in data set [1] (Immediate after application); 12.13 mm in data set [1] (Maximum score). Further, the “stinging response in the stinging test (in words)” value in data set [1] (comparison with water application or LidHCL115a base formulation) is “immediate stinging response is severe, followed by a rapid fall in pain”.

Consider `CCN(CC)CC(=O)Nc1c(C)cccc1C` [lidocaine, Lidocaine base], for which, in data set [2], the “crystallization of lidocaine in solution with time” value was “tended to crystallized with time”.
